# Calls of active or inactive are those of the source.
# Columns and labels:
# [1] = biological target: T1, Heat shock factor protein 1 (Mus musculus, UniProt P38532); assay: inhibition of MG132-induced HSE-luciferase signal, confirmation, cell-based, NIH3T3, luminescence, dose retest (AID 2382); assay type: functional;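 also: NIH3T3 fibroblasts with HSF1-driven luciferase reporter stressed by proteasome inhibitor MG132; luminescence from HSF1-driven luciferase expression after 8 hours of MG132 stress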
# T1 sequence (P38532 whole entry): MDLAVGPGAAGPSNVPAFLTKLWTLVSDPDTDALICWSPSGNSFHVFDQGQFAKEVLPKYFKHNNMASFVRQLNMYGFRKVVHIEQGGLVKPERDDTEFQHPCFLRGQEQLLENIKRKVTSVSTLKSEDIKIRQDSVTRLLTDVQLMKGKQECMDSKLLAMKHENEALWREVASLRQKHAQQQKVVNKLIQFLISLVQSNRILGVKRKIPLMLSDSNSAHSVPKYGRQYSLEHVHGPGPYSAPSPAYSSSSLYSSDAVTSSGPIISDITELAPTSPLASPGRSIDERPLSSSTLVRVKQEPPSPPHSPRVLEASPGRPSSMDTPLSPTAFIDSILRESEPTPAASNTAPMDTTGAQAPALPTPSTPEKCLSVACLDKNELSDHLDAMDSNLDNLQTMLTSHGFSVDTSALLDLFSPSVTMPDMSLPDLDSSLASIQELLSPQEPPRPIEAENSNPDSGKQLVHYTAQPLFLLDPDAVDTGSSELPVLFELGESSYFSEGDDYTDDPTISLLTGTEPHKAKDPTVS
# [2] = LGR2 antagonists, dose response, cell-based, HEK293, CRE-luciferase reporter, cherry pick, set 2 (AID 743343); assay type: functional;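 also: transfected cells were stimulated with diluted bursicon conditioned medium after compound addition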
# [3] = biological target: Luciferin 4-monooxygenase (Photuris pensylvanica, UniProt Q27757); assay: firefly luciferase enzyme inhibitors, dose response, counter-screen for HSF-1 reporter inhibitor project, biochemical, Cell Titer Glo, luminescence, cherry-picks (AID 588847)
# Sequence of Luciferin 4-monooxygenase (Q27757 whole entry, the tested form may be a part): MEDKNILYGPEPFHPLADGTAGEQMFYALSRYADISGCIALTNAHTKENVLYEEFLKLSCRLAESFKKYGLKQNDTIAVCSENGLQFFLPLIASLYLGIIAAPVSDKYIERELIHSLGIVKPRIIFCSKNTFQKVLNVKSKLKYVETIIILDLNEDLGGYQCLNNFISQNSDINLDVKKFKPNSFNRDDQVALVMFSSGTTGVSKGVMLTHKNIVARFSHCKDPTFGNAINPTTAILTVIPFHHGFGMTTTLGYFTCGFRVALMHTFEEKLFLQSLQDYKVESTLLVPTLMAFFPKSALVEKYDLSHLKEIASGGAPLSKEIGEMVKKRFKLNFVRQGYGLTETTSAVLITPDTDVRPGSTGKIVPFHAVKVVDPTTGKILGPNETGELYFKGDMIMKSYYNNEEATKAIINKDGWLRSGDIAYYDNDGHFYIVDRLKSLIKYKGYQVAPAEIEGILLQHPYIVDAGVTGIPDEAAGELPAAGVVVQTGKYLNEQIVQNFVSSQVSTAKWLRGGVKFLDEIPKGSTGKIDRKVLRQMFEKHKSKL
# [4] = biological target: Nucleotide-binding oligomerization domain-containing protein 2 (Homo sapiens, UniProt Q9HC29); assay: NOD2 signaling inhibitors, cell-based, luminescence, uHTS, HEK293 (AID 1566); assay type: functional
# Sequence of Nucleotide-binding oligomerization domain-containing protein 2 (Q9HC29 whole entry, the tested form may be a part): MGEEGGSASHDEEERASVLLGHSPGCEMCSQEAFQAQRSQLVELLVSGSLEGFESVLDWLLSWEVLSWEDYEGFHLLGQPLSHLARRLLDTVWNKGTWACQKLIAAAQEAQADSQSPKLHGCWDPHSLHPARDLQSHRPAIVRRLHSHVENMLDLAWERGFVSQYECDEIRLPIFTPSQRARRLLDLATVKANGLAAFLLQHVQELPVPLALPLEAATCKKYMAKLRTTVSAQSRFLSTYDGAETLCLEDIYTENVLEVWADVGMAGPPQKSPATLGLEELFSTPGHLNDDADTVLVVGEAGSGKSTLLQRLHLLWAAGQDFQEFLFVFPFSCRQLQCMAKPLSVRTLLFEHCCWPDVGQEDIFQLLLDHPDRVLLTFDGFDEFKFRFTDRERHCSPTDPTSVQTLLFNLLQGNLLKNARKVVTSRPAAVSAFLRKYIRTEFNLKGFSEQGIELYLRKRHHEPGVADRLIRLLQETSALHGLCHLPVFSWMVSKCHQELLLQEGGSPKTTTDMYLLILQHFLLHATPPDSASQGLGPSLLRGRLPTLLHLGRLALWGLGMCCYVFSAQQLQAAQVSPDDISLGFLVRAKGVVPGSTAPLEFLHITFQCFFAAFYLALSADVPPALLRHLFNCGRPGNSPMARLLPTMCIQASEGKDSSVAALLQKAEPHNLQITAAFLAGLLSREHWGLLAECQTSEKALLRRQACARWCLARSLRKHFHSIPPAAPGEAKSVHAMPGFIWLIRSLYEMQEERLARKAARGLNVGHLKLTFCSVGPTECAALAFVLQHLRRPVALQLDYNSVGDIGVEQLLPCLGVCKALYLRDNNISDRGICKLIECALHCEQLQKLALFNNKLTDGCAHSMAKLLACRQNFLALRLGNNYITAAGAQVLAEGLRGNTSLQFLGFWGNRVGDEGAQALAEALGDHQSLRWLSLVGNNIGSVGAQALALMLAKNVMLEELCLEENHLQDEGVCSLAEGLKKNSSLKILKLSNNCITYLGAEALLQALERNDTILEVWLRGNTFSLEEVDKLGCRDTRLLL
# HEK293 [5] = assay: NOD1 signaling inhibitors, primary screen, cell-based, luminescence, uHTS (AID 1578); assay type: functional; conditions: Homo sapiens
# [6] = HEK293 cell cytotoxicity, dose response, cytotoxicity control, plate reader, cherry-picked samples (AID 743446); assay type: functional, cell-based
# HEK293 [7] = assay: cells; assay type: functional, cell-based; conditions: Homo sapiens
# HEK293 [8] = assay: cells; assay type: functional, cell-based; conditions: Homo sapiens; remark: listed apart in the source
# HEK293 [9] = assay: NOD2 signaling inhibitors in MDP-stimulated cells, cell-based, uHTS, luminescence (AID 2001); assay type: functional; conditions: Homo sapiens
# [10] = MC4R antagonists, dose response, counter-screen for LGR2 antagonist project, cell-based, plate reader, cherry pick (AID 743444); assay type: functional;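 also: transfected HEK 293 cells stimulated with alpha-MSH peptide; potency of inhibitors of the alpha-MSH evoked signal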
# HEK293 [11] = assay: cells; assay type: functional, cell-based; conditions: Homo sapiens; remark: listed apart in the source
# [12] = biological target: T2, Rac GTPase-activating protein 1 (Homo sapiens, UniProt Q9H0H5); assay: MgcRacGAP GTPase-activating activity inhibitors, confirmation, biochemical, ADP Hunter fluorescence, primary and confirmatory (AID 624330); assay type: functional
# T2 sequence (Q9H0H5 whole entry): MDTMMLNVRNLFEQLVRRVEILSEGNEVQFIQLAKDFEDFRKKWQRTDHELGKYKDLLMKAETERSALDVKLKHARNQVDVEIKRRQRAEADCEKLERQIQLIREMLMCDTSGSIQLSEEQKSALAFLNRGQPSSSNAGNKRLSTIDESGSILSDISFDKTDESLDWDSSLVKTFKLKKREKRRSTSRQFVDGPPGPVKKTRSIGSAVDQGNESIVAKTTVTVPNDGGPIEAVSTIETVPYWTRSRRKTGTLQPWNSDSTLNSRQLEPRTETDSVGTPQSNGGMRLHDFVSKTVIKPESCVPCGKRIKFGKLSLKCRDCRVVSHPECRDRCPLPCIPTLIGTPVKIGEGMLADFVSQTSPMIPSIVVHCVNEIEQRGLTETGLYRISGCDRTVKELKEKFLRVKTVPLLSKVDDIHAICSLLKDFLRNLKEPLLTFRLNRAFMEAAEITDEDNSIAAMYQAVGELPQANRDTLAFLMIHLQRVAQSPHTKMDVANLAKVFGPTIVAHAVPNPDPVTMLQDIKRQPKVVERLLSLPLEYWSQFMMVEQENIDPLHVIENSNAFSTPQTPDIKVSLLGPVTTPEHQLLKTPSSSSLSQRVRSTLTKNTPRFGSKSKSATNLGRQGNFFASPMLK
# [13] = HeLa cell cytotoxicity, dose response, cytotoxicity control for MgcRacGAP inhibitor project (AID 624300); assay type: functional
# [14] = biological target: T3, Microphthalmia-associated transcription factor (Homo sapiens, UniProt O75030); assay: TRPM1 promoter luciferase signal decrease, dose response, MITF inhibitor project, cell-based, SK-MEL-5, cherry-picked, set 3 (AID 493073); assay type: functional
# T3 sequence (O75030 whole entry): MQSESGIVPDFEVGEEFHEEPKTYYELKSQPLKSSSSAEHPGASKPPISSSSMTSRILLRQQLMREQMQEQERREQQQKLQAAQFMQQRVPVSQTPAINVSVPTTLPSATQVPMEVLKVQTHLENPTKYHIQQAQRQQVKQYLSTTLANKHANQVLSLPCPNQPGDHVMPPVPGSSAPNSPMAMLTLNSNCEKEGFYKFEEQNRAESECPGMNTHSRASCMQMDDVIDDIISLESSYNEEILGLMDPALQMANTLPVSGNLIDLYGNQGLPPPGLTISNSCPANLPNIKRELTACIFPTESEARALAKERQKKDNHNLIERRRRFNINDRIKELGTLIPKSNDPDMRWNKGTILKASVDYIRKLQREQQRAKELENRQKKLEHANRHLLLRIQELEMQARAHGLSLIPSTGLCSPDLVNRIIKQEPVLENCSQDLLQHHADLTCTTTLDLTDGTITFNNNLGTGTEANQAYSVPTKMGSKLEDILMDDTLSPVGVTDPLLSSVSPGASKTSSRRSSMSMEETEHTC
# A-375 = assay: A375 melanoma cell viability reduction, dose response, counter-screen for MITF modulator project, cherry-pick samples, set 2 (AID 540335); assay type: functional, cell-based; conditions: Homo sapiens
# [15] = cytotoxicity toward DRD oncogenic fibroblasts, dose response, cell-based, non-viral oncogenic, luminescence (AID 1934); assay type: functional; conditions: Homo sapiens
# BJ [16] = assay: cytotoxicity toward BJ-TERT fibroblasts, dose response, cell-based, RAS-independent, luminescence (AID 1933); assay type: functional; conditions: Homo sapiens
# BJ [17] = assay: cells; assay type: functional, cell-based; conditions: Homo sapiens
# cells = assay type: functional, cell-based; conditions: HEK-CNG
# [18] = cytotoxicity in HEK-293T NF-kB-Luc cells, dose response, cytotoxicity control for B/T-cell NF-kB inhibitor project, cell-based, uHTS hits (AID 489019); assay type: functional;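 also: IC50 reflects cytotoxicity as loss of cell viability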
# BJ [19] = assay: cytotoxicity toward BJ-TERT-LT-ST fibroblasts, dose response, cell-based, RAS-independent, luminescence (AID 1935); assay type: functional; conditions: Homo sapiens;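 also: BJ fibroblasts immortalized with TERT plus LT and ST oncogenes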
# [20] = CEM21 lymphoblast cell cytotoxicity, dose response, cytotoxicity control for viral fusion inhibitor project, CellTiter-Glo luminescence, cherry-picked (AID 652042); assay type: functional, cell-based;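 also: potency for signal decrease meaning cytotoxicity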
# [21] = inhibitors of clade B AD8 Env fusion, dose response, cell-based, cherry-pick (AID 652062); assay type: functional;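 also: luciferase signal from cell-cell fusion driven by HIV-1 clade B AD8 Env; potency is for inhibitors of fusion seen as a drop in luminescence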
# Jurkat = assay: antigen receptor-induced NF-kB inhibitors, dose response, Jurkat, luciferase reporter, luminescence, B- and T-cell (AID 489004); assay type: functional, cell-based; conditions: Homo sapiens;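 also: NF-kB luciferase reporter Jurkat cells stimulated with PMA plus ionomycin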
# [22] = off-target signal loss in HeLa-CEM21 co-culture – HeLa F-luc CTL cells, cherry-picked, counter-screen for HIV-1 Env fusion inhibitor project, dose response (AID 652040); assay type: functional, cell-based;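 also: potency for signal decrease marking cytotoxic or nonspecific inhibition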
# [23] = inhibitors of HIV Env-driven cell fusion, dose response, cherry-pick (AID 652057); assay type: functional, cell-based
# Galanin receptor type 3 = Galanin receptor type 3 (Homo sapiens, UniProt O60755); assay: Fluorescence-based cell-based primary high throughput dose response assay to identify antagonists of the Galanin Receptor 3 (GalR3).; assay type: functional
# Sequence of Galanin receptor type 3 (O60755 whole entry, the tested form may be a part): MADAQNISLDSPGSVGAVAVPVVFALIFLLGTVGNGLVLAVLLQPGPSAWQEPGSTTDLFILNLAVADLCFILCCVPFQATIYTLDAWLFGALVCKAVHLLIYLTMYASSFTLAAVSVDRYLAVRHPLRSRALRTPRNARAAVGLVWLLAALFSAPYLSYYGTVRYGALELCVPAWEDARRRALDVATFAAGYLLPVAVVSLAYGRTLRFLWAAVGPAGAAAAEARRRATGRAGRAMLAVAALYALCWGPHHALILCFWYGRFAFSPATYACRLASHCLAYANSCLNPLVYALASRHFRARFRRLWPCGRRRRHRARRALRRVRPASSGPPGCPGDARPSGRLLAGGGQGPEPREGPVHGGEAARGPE
# [24] = ZM109 Env clade C HIV-1 fusion inhibitors, dose response, HeLa effector, CEM target cells, luciferase, cherry-pick (AID 652058); assay type: functional, cell-based
# INS1 = assay: beta cell apoptosis inhibitors, cytokine rescue, dose response, luminescence, retest (AID 449756); assay type: functional, cell-based; conditions: Rattus norvegicus;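 also: cell death triggered by IL-1 beta plus TNF-alpha plus IFN-gamma mixture; protective hits raise ATP signal compared with cytokine alone wells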
# Escherichia coli [25] = assay: microbe, parasite or virus in culture
# Escherichia coli [26] = assay: microbe, parasite or virus in culture; remark: listed apart in the source
smiles,measurement,setting,value
Cc1cccc(-n2ncc3c(N(C)C4CCCCC4)ncnc32)c1,EC50,[1],< 160 nM (active)
same,AC50,[2],121 nM (active)
same,AC50,[3],6.99 µM (active)
same,EC50,[4],< 310 nM (inactive)
same,EC50,HEK293 [5],9.93 µM (active)
same,AC50,[6],40.2 µM (active)
same,IC50,HEK293 [7],783 nM (active)
same,IC50,HEK293 [8],> 20 µM (inactive)
same,IC50,HEK293 [9],6.81 µM (active)
same,AC50,[10],75.8 nM (active)
same,IC50,HEK293 [11],> 20 µM (inactive)
CN(C)CCNc1ccc2nnn3c4ccc(O)cc4c(=O)c1c23,IC50,[12],62.6 µM (active)
same,CC50,[13],56.5 µM (active)
same,AC50,[14],4.73 µM (active)
same,AC50,A-375,46 µM (active)
CCCCCCCCCn1ccc(=N)cc1,EC50,[15],9.21 µM (active)
same,EC50,BJ [16],9.76 µM (inconclusive)
same,EC50,BJ [17],11.9 µM (active)
same,EC50,cells,> 29.9 µM (inactive)
same,IC50,[18],> 80 µM (inactive)
same,EC50,BJ [19],> 150 µM (inconclusive)
same,AC50,[20],24.1 µM (active)
same,AC50,[21],848 nM (active)
same,IC50,Jurkat,6.34 µM (active)
same,AC50,[22],2.39 µM (active)
same,AC50,[23],8.77 µM (active)
same,IC50,Galanin receptor type 3,1.95 µM (active)
same,AC50,[24],2 µM (active)
same,AC50,INS1,480 nM (active)
COc1ccc(C)cc1S(=O)(=O)N(C)CC(=O)N1CCC(C(N)=O)CC1,AC50,Escherichia coli [25],25.7 µM (active)
same,AC50,Escherichia coli [26],> 380 µM (inactive)

# — ChEMBL document CHEMBL1201862, “PubChem BioAssay data set” (2004)
